Reference: the supplement of paper PMC10307832

How the values were obtained:
Test in all cases: relative viability (nuclei count vs DMSO), 5 days (fraction); higher = more cells survive
ChaGo-K-1 = system: ChaGo-K-1
How it was run: (§1)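 Nuclei were stained with Hoechst during a one-step fixation (final 0.05% Triton X-100, 1% formaldehyde, 1 ug/ml Hoechst) carried out 5 days after dosing, then counted on 4× images. The cells, lung cancer lines in 1536-well plates, had been dosed by pin tool the day after seeding with one drug alone or a fixed anchor-drug dose plus five library-drug doses (not always all listed) in √10 steps. Relative viability is the nuclei count in treated wells divided by that in vehicle wells, and each value is the median of duplicate plates.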

EMC-BAC-2 = system: EMC-BAC-2
How it was run: as §1

EPLC-272H = system: EPLC-272H
How it was run: as §1

H3255 = system: H3255
How it was run: as §1

HCC-44 = system: HCC-44
How it was run: as §1

HCC-827 = system: HCC-827
How it was run: as §1

LCLC-103H = system: LCLC-103H
How it was run: as §1

LCLC-97TM1 = system: LCLC-97TM1
How it was run: as §1

NCI-H1355 = system: NCI-H1355
How it was run: as §1

NCI-H1395 = system: NCI-H1395
How it was run: as §1

NCI-H1563 = system: NCI-H1563
How it was run: as §1

NCI-H1651 = system: NCI-H1651
How it was run: as §1

Compound: COc1cc(N2CCC(C(N)=O)CC2)ccc1Nc1nc(N)c(Cl)c(Nc2ccccc2S(=O)(=O)C(C)C)n1 [HG-5-88-01] + COc1cccc2cc(-c3nc([C@H]4CC[C@H](C(=O)O)CC4)n4ncnc(N)c34)[nH]c12 [OSI-027] (partner 0.5 µM)
- relative viability (ChaGo-K-1; first compound 0.04 µM): 0.627
- relative viability (ChaGo-K-1; first compound 0.1265 µM): 0.649
- relative viability (ChaGo-K-1; first compound 0.4 µM): 0.645
- relative viability (ChaGo-K-1; first compound 1.265 µM): 0.605
- relative viability (ChaGo-K-1; first compound 4 µM): 0.47
- relative viability (EMC-BAC-2; first compound 0.04 µM): 0.361
- relative viability (EMC-BAC-2; first compound 0.1265 µM): 0.371
- relative viability (EMC-BAC-2; first compound 0.4 µM): 0.326
- relative viability (EMC-BAC-2; first compound 1.265 µM): 0.307
- relative viability (EMC-BAC-2; first compound 4 µM): 0.251
- relative viability (EPLC-272H; first compound 0.04 µM): 0.31
- relative viability (EPLC-272H; first compound 0.1265 µM): 0.278
- relative viability (EPLC-272H; first compound 0.4 µM): 0.294
- relative viability (EPLC-272H; first compound 1.265 µM): 0.242
- relative viability (EPLC-272H; first compound 4 µM): 0.0931
- relative viability (H3255; first compound 0.04 µM): 0.558
- relative viability (H3255; first compound 0.1265 µM): 0.538
- relative viability (H3255; first compound 0.4 µM): 0.643
- relative viability (H3255; first compound 4 µM): 0.432
- relative viability (HCC-44; first compound 0.04 µM): 0.491
- relative viability (HCC-44; first compound 0.1265 µM): 0.507
- relative viability (HCC-44; first compound 0.4 µM): 0.353
- relative viability (HCC-44; first compound 1.265 µM): 0.392
- relative viability (HCC-44; first compound 4 µM): 0.121
- relative viability (HCC-827; first compound 0.04 µM): 0.819
- relative viability (HCC-827; first compound 0.1265 µM): 0.89
- relative viability (HCC-827; first compound 0.4 µM): 0.8
- relative viability (HCC-827; first compound 1.265 µM): 0.564
- relative viability (HCC-827; first compound 4 µM): 0.406
- relative viability (LCLC-103H; first compound 0.04 µM): 0.416
- relative viability (LCLC-103H; first compound 0.1265 µM): 0.435
- relative viability (LCLC-103H; first compound 0.4 µM): 0.381
- relative viability (LCLC-103H; first compound 1.265 µM): 0.362
- relative viability (LCLC-103H; first compound 4 µM): 0.405
- relative viability (LCLC-97TM1; first compound 0.04 µM): 0.445
- relative viability (LCLC-97TM1; first compound 0.1265 µM): 0.521
- relative viability (LCLC-97TM1; first compound 0.4 µM): 0.238
- relative viability (LCLC-97TM1; first compound 1.265 µM): 0.305
- relative viability (LCLC-97TM1; first compound 4 µM): 0.131
- relative viability (NCI-H1355; first compound 0.04 µM): 0.341
- relative viability (NCI-H1355; first compound 0.1265 µM): 0.419
- relative viability (NCI-H1355; first compound 0.4 µM): 0.3
- relative viability (NCI-H1355; first compound 1.265 µM): 0.253
- relative viability (NCI-H1355; first compound 4 µM): 0.237
- relative viability (NCI-H1395; first compound 0.04 µM): 0.583
- relative viability (NCI-H1395; first compound 0.1265 µM): 0.66
- relative viability (NCI-H1395; first compound 0.4 µM): 0.638
- relative viability (NCI-H1395; first compound 1.265 µM): 0.646
- relative viability (NCI-H1395; first compound 4 µM): 0.631
- relative viability (NCI-H1563; first compound 0.04 µM): 0.715
- relative viability (NCI-H1563; first compound 0.1265 µM): 0.754
- relative viability (NCI-H1563; first compound 0.4 µM): 0.709
- relative viability (NCI-H1563; first compound 1.265 µM): 0.638
- relative viability (NCI-H1563; first compound 4 µM): 0.573
- relative viability (NCI-H1651; first compound 0.04 µM): 0.748
- relative viability (NCI-H1651; first compound 0.1265 µM): 0.696
- relative viability (NCI-H1651; first compound 0.4 µM): 0.605
